Reference: patent publication US10743540B2, “3-amino-1,2,4-triazine derivatives and their use for controlling undesired plant growth” (BAYER CROPSCIENCE AKTIENGESELLSCHAFT, priority 2016, dated 2020)

What was measured:
Assay type in all cases: in vivo
VERPE: Veronica persica [1] = experiment: Post-emergence herbicidal effect; conditions: application rate 320 g/ha, treated at one-leaf stage, assessed visually after about 3 weeks, 100% = plants have died
Method in brief: (§1)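 Foliar spray of WP or EC formulations (600 to 800 L/ha water, 0.2% wetting agent) onto greenhouse weeds at one-leaf stage, 2 to 3 weeks post-sowing, sandy loam soil. Effect scored visually about 3 weeks later as % activity vs untreated plants: 0% = like control, 100% = dead.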

VIOTR: Viola tricolor = experiment: Post-emergence herbicidal effect; conditions: application rate 320 g/ha, treated at one-leaf stage, assessed visually after about 3 weeks, 100% = plants have died
Method in brief: as §1

STEME: Stellaria media [2] = experiment: Post-emergence herbicidal effect; conditions: application rate 320 g/ha, treated at one-leaf stage, assessed visually after about 3 weeks, 100% = plants have died
Method in brief: as §1

[3] = test system: ECHCG: Echinochloa crus-galli; experiment: Post-emergence herbicidal effect; conditions: application rate 320 g/ha, treated at one-leaf stage, assessed visually after about 3 weeks, 100% = plants have died
Method in brief: as §1

[4] = test system: ALOMY: Alopecurus myosuroides; experiment: Post-emergence herbicidal effect; conditions: application rate 320 g/ha, treated at one-leaf stage, assessed visually after about 3 weeks, 100% = plants have died
Method in brief: as §1

[5] = test system: AMARE: Amaranthus retroflexus; experiment: Post-emergence herbicidal effect; conditions: application rate 320 g/ha, treated at one-leaf stage, assessed visually after about 3 weeks, 100% = plants have died
Method in brief: as §1

[6] = test system: LOLMU: Lolium multiflorum; experiment: Pre-emergence herbicidal effect; conditions: application rate 320 g/ha, scored visually after 3 weeks, 100% = plants have died, 0% = like control plants
Method in brief: (§2)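 Soil-applied pre-emergence test: formulated compound in water (600 to 800 L/ha, 0.2% wetting agent) sprayed over covered seeds in sandy loam pots. Greenhouse, 3 weeks. Damage rated visually on a 0–100% scale (100% = dead).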

VERPE: Veronica persica [7] = experiment: Pre-emergence herbicidal effect; conditions: application rate 320 g/ha, scored visually after 3 weeks, 100% = plants have died, 0% = like control plants
Method in brief: as §2

[8] = test system: MATIN: Matricaria inodora; experiment: Pre-emergence herbicidal effect; conditions: application rate 320 g/ha, scored visually after 3 weeks, 100% = plants have died, 0% = like control plants
Method in brief: as §2

STEME: Stellaria media [9] = experiment: Pre-emergence herbicidal effect; conditions: application rate 320 g/ha, scored visually after 3 weeks, 100% = plants have died, 0% = like control plants
Method in brief: as §2

[10] = test system: ABUTH: Abutilon theophrasti; experiment: Pre-emergence herbicidal effect; conditions: application rate 320 g/ha, scored visually after 3 weeks, 100% = plants have died, 0% = like control plants
Method in brief: as §2

[11] = test system: ECHCG: Echinochloa crus-galli; experiment: Pre-emergence herbicidal effect; conditions: application rate 320 g/ha, scored visually after 3 weeks, 100% = plants have died, 0% = like control plants
Method in brief: as §2

[12] = test system: POLCO: Polygonum convolvulus; experiment: Pre-emergence herbicidal effect; conditions: application rate 320 g/ha, scored visually after 3 weeks, 100% = plants have died, 0% = like control plants
Method in brief: as §2

[13] = test system: ALOMY: Alopecurus myosuroides; experiment: Pre-emergence herbicidal effect; conditions: application rate 320 g/ha, scored visually after 3 weeks, 100% = plants have died, 0% = like control plants
Method in brief: as §2

SETVI: Setaria viridis = experiment: Pre-emergence herbicidal effect; conditions: application rate 320 g/ha, scored visually after 3 weeks, 100% = plants have died, 0% = like control plants
Method in brief: as §2

Row | SMILES | Herbicidal activity with respect to [%] VERPE (VERPE: Veronica persica [1]) | Herbicidal activity with respect to [%] VIOTR (VIOTR: Viola tricolor) | Herbicidal activity with respect to [%] STEME (STEME: Stellaria media [2]) | Herbicidal activity with respect to [%] ECHCG [3] | Herbicidal activity with respect to [%] ALOMY [4] | Herbicidal activity with respect to [%] AMARE [5] | Herbicidal activity with respect to [%] LOLMU [6] | Herbicidal activity with respect to [%] VERPE (VERPE: Veronica persica [7]) | Herbicidal activity with respect to [%] MATIN [8] | Herbicidal activity with respect to [%] STEME (STEME: Stellaria media [9]) | Herbicidal activity with respect to [%] ABUTH [10] | Herbicidal activity with respect to [%] ECHCG [11] | Herbicidal activity with respect to [%] POLCO [12] | Herbicidal activity with respect to [%] ALOMY [13] | Herbicidal activity with respect to [%] SETVI (SETVI: Setaria viridis)
1 | Cc1ccc2c(c1)[C@H](Nc1nnc([S+](C)[O-])c(N)n1)[C@@H](C)C2 (stereo partly drawn) [Example 1.44] | 100% | 90% | 90% | 90% | 100% | 100% | 100% | 100% | 100% | 100% | 100% | 100% | 100% | 100% | 100%
2 | Cc1ccc2c(c1)[C@H](Nc1nnc(C(F)(F)F)c(N)n1)CCC2 [Example 1.52] | 90% | 90% | 100% | 100% | 100% | 100% | 100% | 100% | 100% | 100% | 100% | 100% | 100% | 100% | 100%
3 | Cc1ccc2c(c1)[C@H](Nc1nnc(C(F)(F)F)c(N)n1)CC2 [Example 1.67] | 90% | 100% | 100% | 100% | 90% | 100% | 100% | 100% | 100% | 100% | 80% | 100% | 100% | 100% | 100%
4 | Cc1ccc2c(c1)[C@H](Nc1nnc(C#N)c(N)n1)CC2 [Example 1.70] | 100% | 90% | 100% | 100% | 100% | 90% | 100% | 100% | 100% | 100% | 100% | 100% | 100% | 100% | 100%
5 | Cc1ccc2c(c1)[C@H](Nc1nnc([S+](C)[O-])c(N)n1)CC2 (stereo partly drawn) [Example 1.71] | 80% | 90% | 100% | 100% | 90% | 80% | 100% | 100% | 100% | 100% | 100% | 100% | 100% | 100% | 100%
6 | CC(=O)c1nnc(N[C@@H]2CCc3ccc(C)cc32)nc1N [Example 1.72] | 80% | 90% | 100% | 100% | 100% | 90% | 100% | 100% | 100% | 100% | 100% | 100% | 100% | 100% | 100%
7 | Cc1ccc2c(c1)[C@H](Nc1nnc(S(C)(=O)=O)c(N)n1)CC2 [Example 1.73] | 100% | 90% | 100% | 100% | 100% | 100% | 100% | 100% | 100% | 100% | 100% | 100% | 100% | 100% | 100%
